ChEMBL document CHEMBL3124888, “Inhibiting the HIV integration process: past, present, and the future” (J Med Chem, 2014)
≈ marks a conversion by molar mass, not a printed value.

What was measured:
[1] = Inhibition of HIV1 integrase/LEDGF-75 (unknown origin) interaction
[2] = test system: Human immunodeficiency virus 1; assay: Antiviral activity against HIV-1 harboring integrase G140S mutant relative to wild type HIV1; format: functional
[3] = test system: Human immunodeficiency virus 1; assay: Antiviral activity against HIV-1 harboring integrase E92Q mutant relative to wild type HIV1; format: functional
[4] = test system: Human immunodeficiency virus
[5] = test system: Human immunodeficiency virus 1; assay: Antiviral activity against HIV-1 harboring integrase T66R mutant relative to wild type HIV1; format: functional
[6] = test system: Human immunodeficiency virus 1; assay: Antiviral activity against HIV-1 harboring integrase Q148R mutant relative to wild type HIV1; format: functional
[7] = test system: Human immunodeficiency virus 1; assay: Antiviral activity against HIV-1 harboring integrase R263K mutant relative to wild type HIV1; format: functional
[8] = test system: Human immunodeficiency virus 1; assay: Antiviral activity against HIV-1 harboring integrase Y143R mutant relative to wild type HIV1; format: functional
[9] = test system: Human immunodeficiency virus 1; assay: Antiviral activity against HIV-1 harboring integrase G140S/Q148K double mutant relative to wild type HIV1; format: functional
[10] = test system: Human immunodeficiency virus 1; assay: Antiviral activity against HIV-1 harboring integrase G118R mutant relative to wild type HIV1; format: functional
[11] = test system: Human immunodeficiency virus 1; assay: Antiviral activity against HIV-1 harboring integrase Q148H mutant relative to wild type HIV1; format: functional
[12] = test system: Human immunodeficiency virus 1; assay: Antiviral activity against HIV-1 harboring integrase E92Q/N155H double mutant relative to wild type HIV1; format: functional
[13] = test system: Human immunodeficiency virus 1; assay: Antiviral activity against HIV-1 harboring integrase N155H mutant relative to wild type HIV1; format: functional
[14] = test system: Human immunodeficiency virus 1; assay: Antiviral activity against HIV-1 harboring integrase G140S/Q148H double mutant relative to wild type HIV1; format: functional
[15] = test system: Human immunodeficiency virus 1; assay: Antiviral activity against HIV-1 harboring integrase Q148K mutant relative to wild type HIV1; format: functional
[16] = test system: Human immunodeficiency virus 1; assay: Antiviral activity against HIV-1 harboring integrase Y143C mutant relative to wild type HIV1; format: functional
[17] = test system: Human immunodeficiency virus 1; assay: Antiviral activity against HIV-1 harboring integrase E138K mutant relative to wild type HIV1; format: functional
[18] = test system: Human immunodeficiency virus 1; assay: Antiviral activity against HIV-1 3B infected in human C8166 cells assessed as inhibition of viral replication by MTT assay; format: functional, organism-based; conditions: Human immunodeficiency virus 1, 3B
[19] = molecular target: T1, Human immunodeficiency virus type 1 integrase (Human immunodeficiency virus 1, UniProt Q7ZJM1); assay: Inhibition of HIV-1 integrase binding to viral DNA by SPR-based competitive assay
[20] = test system: Human immunodeficiency virus 1; assay: Antiviral activity against HIV-1 harboring integrase E138K/Q148K double mutant relative to wild type HIV1; format: functional
[21] = test system: Human immunodeficiency virus 1; assay: Antiviral activity against HIV-1 harboring integrase T97A/Y143R double mutant relative to wild type HIV1; format: functional
[22] = test system: Human immunodeficiency virus 1; assay: Antiviral activity against HIV-1 harboring integrase T97A mutant relative to wild type HIV1; format: functional
[23] = test system: Human immunodeficiency virus 1; assay: Antiviral activity against HIV-1 harboring integrase E138K/Q148H double mutant relative to wild type HIV1; format: functional
[24] = test system: Human immunodeficiency virus 1; assay: Antiviral activity against HIV-1 harboring integrase T97A/Y143C double mutant relative to wild type HIV1; format: functional
[25] = molecular target: T1, Human immunodeficiency virus type 1 integrase; assay: Inhibition of HIV1 integrase strand transfer activity
[26] = molecular target: T1, Human immunodeficiency virus type 1 integrase; assay: Inhibition of HIV-1 integrase 3'-end processing activity
[27] = test system: Human immunodeficiency virus 1; assay: Antiviral activity against HIV-1 harboring integrase T66I/R263K double mutant relative to wild type HIV1; format: functional
[28] = test system: Human immunodeficiency virus 1; assay: Antiviral activity against HIV-1 harboring integrase G140C mutant relative to wild type HIV1; format: functional
[29] = test system: Human immunodeficiency virus 1; assay: Antiviral activity against HIV-1 harboring integrase E92V mutant relative to wild type HIV1; format: functional

SMILES	fold change (FC) [2]	fold change (FC) [3]	fold change (FC) [5]	fold change (FC) [6]	fold change (FC) [7]	fold change (FC) [8]	fold change (FC) [9]	fold change (FC) [10]	fold change (FC) [11]	fold change (FC) [12]	fold change (FC) [13]	fold change (FC) [14]	fold change (FC) [15]	fold change (FC) [16]	fold change (FC) [17]	other results
CC(C)c1c(C(=O)Nc2ccccc2)c(-c2ccccc2)c(-c2ccc(F)cc2)n1CC[C@@H](O)C[C@@H](O)CC(=O)O [ATORVASTATIN]																IC50 [1]: 8.9 µM
CCN1C[C@H](C)n2c(c(O)c3c(=O)n(Cc4ccc(F)c(Cl)c4)nc(C(=O)NC)c32)C1=O	2	<2	<2	2	<2	2	2	2	2	2	2	10	<2	2	2	T1/2 [4]: 32 h
CCCCc1ncc(/C=C(\Cc2cccs2)C(=O)O)n1Cc1ccc(C(=O)O)cc1 [EPROSARTAN]																IC50 [1]: 36.9 µM
O=C(CN1CCCC1)Nc1ccc(Cc2ccc(NC(=O)CN3CCCC3)cc2)cc1																EC50 [18]: 17.1 µg/mL (≈ 40.5 µM); IC50 [19]: 7.29 µM
C[C@@H]1CCO[C@H]2Cn3cc(C(=O)NCc4ccc(F)cc4F)c(=O)c(O)c3C(=O)N12 [DOLUTEGRAVIR]	<2	2	<2	<2	10	<2	<2	2	<2	2	<2	<2	<2	<2	2	fold change (FC) [20]: >100; fold change (FC) [21]: <2; fold change (FC) [22]: <2; fold change (FC) [23]: 2; fold change (FC) [24]: <2
COC(=O)[C@H](COC(=O)/C=C/c1ccc(OC(C)=O)c(OC(C)=O)c1)NC(=O)/C=C/c1ccc(OC(C)=O)c(OC(C)=O)c1																IC50 [25]: 3 µM; IC50 [26]: 3 µM
Cc1nnc(C(=O)NC(C)(C)c2nc(C(=O)NCc3ccc(F)cc3)c(O)c(=O)n2C)o1	2	2	2	20	<2	20	>100	2	10	50	20	>100	50	2	2	fold change (FC) [27]: <2; fold change (FC) [20]: 10; fold change (FC) [28]: >5; fold change (FC) [29]: >5; T1/2 [4]: > 7.3 h; fold change (FC) [21]: >100; fold change (FC) [22]: 2; fold change (FC) [23]: <2; fold change (FC) [24]: >100
